Source: ChEMBL document CHEMBL1201862, “PubChem BioAssay data set” (2004)
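Cultured in 96-well plates, cells were exposed to test compound for 48 hours across five concentrations. Here, GI50 denotes the concentration required for 50% inhibition of growth.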 The source made the active and inactive calls. Cut-off read from the data, not from the text of the source: active = GI50 up to about 1.1 µM and inactive = higher.

Key:
Assay in all cases: NCI anticancer screen, dose series, 48 h
786-0 = tested on: 786-0
A498 = tested on: A498
A549 = tested on: A549
ACHN = tested on: ACHN
BT-549 = tested on: BT-549
CAKI-1 = tested on: CAKI-1
CCRF-CEM = tested on: CCRF-CEM
COLO 205 = tested on: COLO 205
DU-145 = tested on: DU-145
EKVX = tested on: EKVX
HCC 2998 = tested on: HCC 2998
HCT-116 = tested on: HCT-116
HCT-15 = tested on: HCT-15
HL-60 = tested on: HL-60
HOP-62 = tested on: HOP-62
HOP-92 = tested on: HOP-92
HT-29 = tested on: HT-29
Hs-578T = tested on: Hs-578T
IGROV-1 = tested on: IGROV-1
K562 = tested on: K562
KM12 = tested on: KM12
LOX IMVI = tested on: LOX IMVI
M14 = tested on: M14
MCF7 = tested on: MCF7
MDA-MB-231 = tested on: MDA-MB-231
MDA-MB-435 = tested on: MDA-MB-435
MDA-N = tested on: MDA-N
MOLT-4 = tested on: MOLT-4
Malme-3M = tested on: Malme-3M
NCI-H226 = tested on: NCI-H226
NCI-H23 = tested on: NCI-H23
NCI-H460 = tested on: NCI-H460
NCI-H522 = tested on: NCI-H522
NCI/ADR-RES = tested on: NCI/ADR-RES
OVCAR-3 = tested on: OVCAR-3
OVCAR-4 = tested on: OVCAR-4
OVCAR-5 = tested on: OVCAR-5
OVCAR-8 = tested on: OVCAR-8
PC-3 = tested on: PC-3
RPMI-8226 = tested on: RPMI-8226
SF-268 = tested on: SF-268
SF-295 = tested on: SF-295
SF-539 = tested on: SF-539
SK-MEL-28 = tested on: SK-MEL-28
SK-MEL-2 = tested on: SK-MEL-2
SK-MEL-5 = tested on: SK-MEL-5
SK-OV-3 = tested on: SK-OV-3
SN12C = tested on: SN12C
SNB-19 = tested on: SNB-19
SNB-75 = tested on: SNB-75
SR = tested on: SR
SW-620 = tested on: SW-620
T47D = tested on: T47D
TK-10 = tested on: TK-10
U-251 = tested on: U-251
UACC-257 = tested on: UACC-257
UACC-62 = tested on: UACC-62
UO-31 = tested on: UO-31
RXF 393 = tested on: RXF 393

SMILES: C=C1CC(COc2cc(=O)oc3ccccc23)(c2ccccc2)OC1=O (configuration not stated)
- GI50 (786-0): 1.51 µM (inactive)
- GI50 (A498): 2.38 µM (inactive)
- GI50 (A549): 11.2 µM (inactive)
- GI50 (ACHN): 2.5 µM (inactive)
- GI50 (BT-549): 1.53 µM (inactive)
- GI50 (CAKI-1): 1.3 µM (inactive)
- GI50 (CCRF-CEM): 0.625 µM (active)
- GI50 (COLO 205): 1.51 µM (inactive)
- GI50 (DU-145): 2.44 µM (inactive)
- GI50 (EKVX): 6.27 µM (inactive)
- GI50 (HCC 2998): 1.05 µM (active)
- GI50 (HCT-116): 1.46 µM (inactive)
- GI50 (HCT-15): 1.82 µM
- GI50 (HL-60): 0.407 µM (active)
- GI50 (HOP-62): 8.53 µM (inactive)
- GI50 (HOP-92): 1.01 µM (active)
- GI50 (HT-29): 1.38 µM (inactive)
- GI50 (Hs-578T): 3.53 µM (inactive)
- GI50 (IGROV-1): 1.51 µM (inactive)
- GI50 (K562): 0.637 µM (active)
- GI50 (KM12): 3.34 µM (inactive)
- GI50 (LOX IMVI): 1.45 µM (inactive)
- GI50 (M14): 1.51 µM (inactive)
- GI50 (MCF7): 0.413 µM (active)
- GI50 (MDA-MB-231): 3.61 µM (inactive)
- GI50 (MDA-MB-435): 3.7 µM (inactive)
- GI50 (MDA-N): 2.05 µM (inactive)
- GI50 (MOLT-4): 7.94 µM (inactive)
- GI50 (Malme-3M): 1.33 µM (inactive)
- GI50 (NCI-H226): 8.17 µM (inactive)
- GI50 (NCI-H23): 1.77 µM (inactive)
- GI50 (NCI-H460): 9.29 µM (inactive)
- GI50 (NCI-H522): 1.56 µM (inactive)
- GI50 (NCI/ADR-RES): 2.96 µM (inactive)
- GI50 (OVCAR-3): 1.37 µM (inactive)
- GI50 (OVCAR-4): 2.12 µM (inactive)
- GI50 (OVCAR-5): 8.07 µM (inactive)
- GI50 (OVCAR-8): 1.86 µM (inactive)
- GI50 (PC-3): 1.95 µM (inactive)
- GI50 (RPMI-8226): 0.507 µM (active)
- GI50 (SF-268): 7.33 µM (inactive)
- GI50 (SF-295): 5.15 µM (inactive)
- GI50 (SF-539): 2.74 µM (inactive)
- GI50 (SK-MEL-28): 2.41 µM (inactive)
- GI50 (SK-MEL-2): 1.08 µM (active)
- GI50 (SK-MEL-5): 1.71 µM (inactive)
- GI50 (SK-OV-3): 3.27 µM (inactive)
- GI50 (SN12C): 1.91 µM (inactive)
- GI50 (SNB-19): 16.4 µM (inactive)
- GI50 (SNB-75): 4.25 µM (inactive)
- GI50 (SR): 6.32 µM (inactive)
- GI50 (SW-620): 1.17 µM (inactive)
- GI50 (T47D): 2.25 µM (inactive)
- GI50 (TK-10): 1.59 µM (inactive)
- GI50 (U-251): 9.4 µM (inactive)
- GI50 (UACC-257): 1.99 µM (inactive)
- GI50 (UACC-62): 1.41 µM (inactive)
- GI50 (UO-31): 6.64 µM (inactive)

SMILES: Cn1c2c(c3ccccc31)CCN1C(=O)C34CCCC3CC21S4 (configuration not stated)
- GI50 (786-0): > 100 µM (inactive)
- GI50 (A498): > 100 µM (inactive)
- GI50 (A549): > 100 µM (inactive)
- GI50 (ACHN): > 100 µM (inactive)
- GI50 (BT-549): > 100 µM (inactive)
- GI50 (CAKI-1): > 100 µM (inactive)
- GI50 (COLO 205): > 100 µM (inactive)
- GI50 (DU-145): > 100 µM (inactive)
- GI50 (EKVX): > 100 µM (inactive)
- GI50 (HCT-116): > 100 µM (inactive)
- GI50 (HCT-15): > 100 µM
- GI50 (HL-60): > 100 µM (inactive)
- GI50 (HOP-62): > 100 µM (inactive)
- GI50 (HOP-92): > 100 µM (inactive)
- GI50 (HT-29): > 100 µM (inactive)
- GI50 (Hs-578T): > 100 µM (inactive)
- GI50 (IGROV-1): > 100 µM (inactive)
- GI50 (K562): > 100 µM (inactive)
- GI50 (KM12): > 100 µM (inactive)
- GI50 (LOX IMVI): > 100 µM (inactive)
- GI50 (M14): > 100 µM (inactive)
- GI50 (MCF7): > 100 µM (inactive)
- GI50 (MDA-MB-231): > 100 µM (inactive)
- GI50 (MDA-MB-435): > 100 µM (inactive)
- GI50 (MDA-N): > 100 µM (inactive)
- GI50 (MOLT-4): > 100 µM (inactive)
- GI50 (Malme-3M): > 100 µM (inactive)
- GI50 (NCI-H226): > 100 µM (inactive)
- GI50 (NCI-H23): > 100 µM (inactive)
- GI50 (NCI-H522): > 100 µM (inactive)
- GI50 (NCI/ADR-RES): > 100 µM (inactive)
- GI50 (OVCAR-3): > 100 µM (inactive)
- GI50 (OVCAR-4): > 100 µM (inactive)
- GI50 (OVCAR-5): > 100 µM (inactive)
- GI50 (OVCAR-8): > 100 µM (inactive)
- GI50 (PC-3): 95.1 µM (inactive)
- GI50 (RPMI-8226): > 100 µM (inactive)
- GI50 (RXF 393): > 100 µM (inactive)
- GI50 (SF-268): > 100 µM (inactive)
- GI50 (SF-295): > 100 µM (inactive)
- GI50 (SF-539): > 100 µM (inactive)
- GI50 (SK-MEL-28): > 100 µM (inactive)
- GI50 (SK-MEL-2): > 100 µM (inactive)
- GI50 (SK-MEL-5): 76.2 µM (inactive)
- GI50 (SK-OV-3): > 100 µM (inactive)
- GI50 (SN12C): > 100 µM (inactive)
- GI50 (SNB-19): > 100 µM (inactive)
- GI50 (SR): > 100 µM (inactive)
- GI50 (SW-620): > 100 µM (inactive)
- GI50 (T47D): 87.1 µM (inactive)
- GI50 (TK-10): > 100 µM (inactive)
- GI50 (U-251): > 100 µM (inactive)
- GI50 (UACC-257): > 100 µM (inactive)
- GI50 (UACC-62): 78.7 µM (inactive)
- GI50 (UO-31): > 100 µM (inactive)

SMILES: C1=C\SS/C=C\SS/1
- GI50 (786-0): 17 µM (inactive)
- GI50 (A498): > 100 µM (inactive)
- GI50 (A549): 48.1 µM (inactive)
- GI50 (ACHN): 27.9 µM (inactive)
- GI50 (BT-549): 97.1 µM (inactive)
- GI50 (CAKI-1): > 10 µM (inactive)
- GI50 (CCRF-CEM): 2.28 µM (inactive)
- GI50 (COLO 205): 39.3 µM (inactive)
- GI50 (DU-145): > 100 µM (inactive)
- GI50 (EKVX): 46.8 µM (inactive)
- GI50 (HCC 2998): 53.3 µM (inactive)
- GI50 (HCT-116): 34.4 µM (inactive)
- GI50 (HCT-15): 14.4 µM
- GI50 (HL-60): 7.57 µM (inactive)
- GI50 (HOP-62): 54.6 µM (inactive)
- GI50 (HOP-92): 24.3 µM (inactive)
- GI50 (HT-29): 15.6 µM (inactive)
- GI50 (Hs-578T): > 100 µM (inactive)
- GI50 (IGROV-1): 16.6 µM (inactive)
- GI50 (K562): 26.1 µM (inactive)
- GI50 (KM12): 36 µM (inactive)
- GI50 (LOX IMVI): 29 µM (inactive)
- GI50 (M14): 29.5 µM (inactive)
- GI50 (MCF7): 15.9 µM (inactive)
- GI50 (MDA-MB-231): 6.53 µM (inactive)
- GI50 (MDA-MB-435): 57.5 µM (inactive)
- GI50 (MDA-N): 40.3 µM (inactive)
- GI50 (MOLT-4): 12.9 µM (inactive)
- GI50 (NCI-H226): > 100 µM (inactive)
- GI50 (NCI-H23): 40.9 µM (inactive)
- GI50 (NCI-H460): 23.9 µM (inactive)
- GI50 (NCI/ADR-RES): 46 µM (inactive)
- GI50 (OVCAR-4): 46.8 µM (inactive)
- GI50 (OVCAR-5): 35.3 µM (inactive)
- GI50 (OVCAR-8): 17.1 µM (inactive)
- GI50 (PC-3): 38.5 µM (inactive)
- GI50 (RPMI-8226): 28.9 µM (inactive)
- GI50 (RXF 393): 32.2 µM (inactive)
- GI50 (SF-268): 40.5 µM (inactive)
- GI50 (SF-295): 58.1 µM (inactive)
- GI50 (SK-MEL-28): > 100 µM (inactive)
- GI50 (SK-MEL-2): 48.4 µM (inactive)
- GI50 (SK-MEL-5): 24.5 µM (inactive)
- GI50 (SK-OV-3): > 100 µM (inactive)
- GI50 (SN12C): 61.9 µM (inactive)
- GI50 (SNB-19): 32.3 µM (inactive)
- GI50 (SR): > 100 µM (inactive)
- GI50 (SW-620): 33.1 µM (inactive)
- GI50 (T47D): 55.1 µM (inactive)
- GI50 (TK-10): 40.7 µM (inactive)
- GI50 (U-251): 34.8 µM (inactive)
- GI50 (UACC-257): 38.9 µM (inactive)
- GI50 (UACC-62): 52.4 µM (inactive)
- GI50 (UO-31): 22.2 µM (inactive)
